Format in all cases: cell-based, human
Experiment [1] has as its system DM93 cells. Put plainly: BrdU staining and flow cytometry (rereplication). To be noted: DM93, pevonedistat. On the procedure:
The effects of pevonedistat and/or silencing of cell cycle-associated proteins on cell cycle distribution or rereplication were assessed by flow cytometry according to the manufacturer's instructions. Different melanoma lines were transfected with si-GL2, si-CDT2, si-CDT1, si-SET8, si-p21, or si-geminin for a time ranging from 24 to 96 hours. At the end of treatment, cells were pulsed with BrdU (10 nM) for 1 hour in the dark prior to harvesting. Cells were washed with PBS and staining solution before the fixation and permeabilization steps according to the manufacturer's instructions. Cells were subsequently stained with anti-BrdU antibody solution for 20 minutes at room temperature, washed, and stained with 7-AAD solution for 30 minutes at 4° C. The cells were resuspended in 1 ml of staining buffer and kept overnight at 4° C. before analysis. Samples were analyzed on a FFACSCAN™ (Becton, Dickinson and Company, Franklin Lakes, N.J., United States of America), and different phases of the cell cycle were determined using FLOWJO® (FLOWJO, LLC, Ashland, Oreg., United States of America) and ModFit (Verity Software House, Topsham, Me., United States of America) software.

In experiment [2] the test system is DM331 and SK-MEL-24 cells from PLX4720-resistant tumors. The experiment is described as follows: In vitro sensitivity of cells extracted ex vivo from PLX4720-resistant tumors. To be noted: DM331 and SK-MEL-24 cells extracted ex vivo. On the procedure:
Proliferation and viability of cultured cells was measured by CELLTITER96® Non-radioactive Cell Proliferation Assay (Promega Corporation; Madison, Wis., United States of America). Briefly, various wild type and mutant BRAF melanoma cells were seeded in 96 well plates and treated with pevonedistat, vemurafenib, or the combination pevonedistat and vemurafenib at various concentrations. Control cells were treated with DMSO. 96 hours following treatment, cells were stained with the dye solution according to the manufacturer's protocol. Absorbance was recorded at 570 nm and growth curves were established. […] Cells were counted every 24 hours using a COUNTESS™ Automated Cell Counter (INVITROGEN™, Carlsbad, Calif., United States of America), and harvested at the indicated times for PI staining and FACS analysis (cell cycle profile) or for immunoblotting.
The effects of pevonedistat, vemurafenib, and/or silencing of various cell cycle-associated proteins by siRNA on cell cycle distribution and rereplication were assessed by propidium iodide staining and flow cytometry of asynchronous melanoma cultures. […]

Another experiment deals with Cal27 cells. The experiment is described as follows: Clonogenic survival assay for radiation sensitivity. The arrangement: SF4: unit not given here. To be noted: for SF4: S 0.1; for SER (sensitivity enhancement ratio): at 10% survival. The method, then:
The effect of pevonedistat treatment or transient silencing of CDT2, geminin, or EMI1 on cell proliferation or on radiation sensitivity was tested using clonogenic survival assays. Cells were transfected with the appropriate si-RNA 48 hours prior to seeding. Cells were then counted using COUNTESS™ Automated Cell Counter (INVITROGEN™, Carlsbad, Calif., United States of America) and were seeded at 15,000 cells/plate in 60 mm dishes. Cells were irradiated 24 hours after seeding with various doses and were cultured for 7-10 days. Once colonies reached the appropriate size (>50 cells each), cells were washed twice with cold PBS, fixed in cold 100% methanol for 10 minutes, and stained with crystal violet (0.5%) for 10 minutes. The plates were washed, dried, and imaged using IMAGE LAB™ software (BioRad Laboratories, Inc., Hercules, Calif., United States of America). QUANTITY ONE® software (BioRad Laboratories, Inc., Hercules, Calif., United States of America) was used to quantify the number of colonies and survival curves were established based on the linear quadratic model, using the formula S=e^−αD-βD2; where S represents the surviving fraction and D the dose of irradiation. Results are represented as mean standard deviation (SD) of three independent experiments normalized to the corresponding non-irradiated plates for each group. When the effect of pevonedistat on cell radiosensitivity was tested, cells were seeded at 15,000 cells/60 mm plate and allowed to adhere for 4-6 hours. Pevonedistat was then added upon cell adherence at varying concentrations and cells were irradiated the following day. The duration of the experiment and the stopping procedure were as described above.

In experiment [3] the test system is DM93 cells. The experiment is described as follows: Senescence-associated β-galactosidase assay. The settings on record: DM93, pevonedistat, as early as 48 hours post-treatment. The method, then: Senescence was monitored using β-galactosidase (β-gal) staining. Following the various treatments, cells were washed twice with PBS, fixed with 2% formaldehyde/0.2% gluteraldehyde in PBS for 15 minutes at room temperature, and washed twice with PBS. The cells were stained with fresh X-Gal solution (1 mg/ml X-gal, 40 mM C6H8O7.H2O, 5 mM K3Fe(CN)6, 5 mM K4Fe(CN)6.3H2O, 150 mM NaCl, and 2 mM MgCl2.6H2O in PBS) for 3-12 hours at 37° C. in the dark. Cells were washed three times in PBS and fixed with 100% methanol for 5 minutes at room temperature. Bright field blue color images were taken with an AMG EVOS® XL Core Imager/camera microscope (Life Technologies, Inc., Carlsbad, Calif., United States of America) counting at least 100 cells from at least 3 fields.

Setting [4] is: Cal27, 20 nM pevonedistat 24 hours prior to irradiation.
[5] abbreviates: Cal27, 40 nM pevonedistat 24 hours prior to irradiation.
Setting [6] is: Cal27, 60 nM pevonedistat 24 hours prior to irradiation.
Setting [7] is: Cal27, 80 nM pevonedistat 24 hours prior to irradiation.

Here are results for 1 molecule from patent publication US20200397894A1, “COMPOSITIONS AND METHODS FOR TREATING CANCER” (University of Virginia Patent Foundation, priority 2016, published 2020).

Molecules are shown by their SMILES.

`NS(=O)(=O)OCC1CC(n2ccc3c(NC4CCc5ccccc54)ncnc32)CC1O` [pevonedistat, ((1S,2S,4R)-4-(4-((1S)-2,3-Dihydro-H-inden-1-ylamino)-7H-pyrrolo(2,3-d)pyrimidin-7-yl)-2-hydroxycyclopentyl)methyl sulphamate]: the “cells with rereplication within the same cell cycle (BrdU labeling)” value worked out at 17.3% in the experiment with DM93 cells [1] (24 hours) and 61.7% with DM93 cells [1] (48 hours). The “sensitivity in vitro of cells from PLX4720-resistant tumors” value in experiment [2] was “sensitive to pevonedistat-induced rereplication and inhibition”. In addition, the “α (linear quadratic model)” value in the experiment on Cal27 cells (setting [4]) is 1.50 × 10^−13; in the experiment on Cal27 cells (setting [5]) it was 0.108; in the experiment with Cal27 cells (setting [6]), 0.471; in the experiment with Cal27 cells (setting [7]), 0.906. The “β (linear quadratic model)” value with Cal27 cells (setting [4]) is recorded as 0.049; with Cal27 cells (setting [5]) it was 0.052; in the experiment with Cal27 cells (setting [6]), 0.009; with Cal27 cells (setting [7]), −0.020. Moreover, the SF4 in the experiment on Cal27 cells (Cal27, 20 nM pevonedistat) worked out at 6.893; with Cal27 cells (Cal27, 40 nM pevonedistat), 5.692; in the experiment with Cal27 cells (Cal27, 60 nM pevonedistat), 4.457; with Cal27 cells (Cal27, 80 nM pevonedistat) it was 2.702. The “SER (sensitivity enhancement ratio)” value was found to be 1.171 in the experiment with Cal27 cells (Cal27, 20 nM pevonedistat); 1.419 with Cal27 cells (Cal27, 40 nM pevonedistat); 1.812 in the experiment with Cal27 cells (Cal27, 60 nM pevonedistat); 2.702 in the experiment with Cal27 cells (Cal27, 80 nM pevonedistat). Also, the senescence entry in the experiment with DM93 cells [3] is given as “majority of cells underwent senescence”.
